According to patent US12606561B2, “Substituted pyrazolo[1,5-a][1,3,5]triazines as CDK inhibitors” (QURIENT CO., LTD., priority 2018, dated 2026):
pIC50: −log10 of the molar value.

Legend:
CDK2/Cyclin A = molecular target: T1, CDK2/Cyclin A (Homo sapiens, UniProt P24941); test: Enzymatic assay for CDK2 (LANCE Ultra kinase assay, FRET based); format: biochemical; conditions: ATP at Km
T1 construct: purchased Invitrogen PV6290
In short: (§1)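 TR-FRET kinase assay at ATP Km with ULight-MBP peptide (68 nM) and Eu-anti-phospho-MBP antibody; CDK2/Cyclin A at […], CDK5/p25 at […]. 8-dose 4-fold compound dilutions; 60 min kinase reaction at 23° C., EDTA stop, 60 min detection, read at 615/665 nm.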

CDK1/Cyclin B = molecular target: T2, CDK1/Cyclin B (Homo sapiens, UniProt P06493); test: Enzymatic assay for CDK1 (LANCE Ultra kinase assay, FRET based); format: biochemical; conditions: ATP at Km; read-out: CDK1 enzymatic activity IC50
T2 construct: purchased Invitrogen PR4768C
In short: (§2)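 Inhibition of purified CDK/cyclin complexes was measured with ATP at its Km, using a ULight-labeled peptide substrate. Substrate phosphorylation was detected by FRET with a Europium-labeled anti-phospho-antibody.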

MV4-11 = test: Cellular MV4-11 viability assay (CellTiter-Glo, 72 hours); format: cell-based; conditions: Homo sapiens; MV4-11 cells
In short: (§3)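 Cells grown in RPMI-1640 with 10% FBS were seeded at 1×10^4/well (MV4-11), 5×10^3 (OVCAR-3) or 1×10^3 (A2780), then dosed 24 h later with compound at 0.0015 uM to 10 uM, DMSO <0.1%. Viability was read by CellTiter-Glo luminescence after 72 h at 37° C, in duplicate.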

CDK5/p25 = molecular target: T3, CDK5/p25 (Homo sapiens, UniProt Q00535); test: Enzymatic assay for CDK5 (LANCE Ultra kinase assay, FRET based); format: biochemical; conditions: ATP at Km
T3 construct: purchased Invitrogen PR8543B
In short: as §1

CDK7/Cyclin H/MNAT1 = molecular target: T4, CDK7/Cyclin H/MNAT1 (Homo sapiens, UniProt P50613); test: Enzymatic assay for CDK7 (LANCE Ultra kinase assay, FRET based); format: biochemical; conditions: for pIC50: ATP at Km
T4 construct: purchased Invitrogen PR6749B
In short: as §2

OVCAR-3 = OVCAR-3 viability assay (CellTiter-Glo, 72 hours); format: cell-based; conditions: Homo sapiens; OVCAR-3 cells
In short: as §3

H460 = test: Cellular H460 viability assay (CellTiter-Glo, 72 hours); format: cell-based; conditions: Homo sapiens, NCI-H460; H460 cells
Method: All cell lines were routinely tested for mycoplasma.
To effect of the CDK7 inhibitor to inhibit the growth of target cancer cells, viability assay were conducted a 72 hour time period. Briefly, the candidate cell line was plated in 96 well plate at the following density of cells respectively. 1×10^4 cells/well for MV4-11, 5×10^3 for H460 and OVCAR-3, and 1×10^3 for A2780. […] DMSO solvent without compound served as a control and final DMSO concentration lest than 0.1%. After 72 hours of incubation at 37° C., 5% CO2 incubator, cells were analyzed for the viability using the CellTiter-Glo Luminescent Cell Viability Assay (Promega, Cat #G7570). All viability assays were performed in duplicate and Luminescence was read using an Envision (Perkin Elmer, USA). Data was analyzed using XLfit software.

A2780 = A2780 viability assay (CellTiter-Glo, 72 hours); format: cell-based; conditions: Homo sapiens; A2780 cells
In short: as §3

T3 sequence (Q00535 whole entry): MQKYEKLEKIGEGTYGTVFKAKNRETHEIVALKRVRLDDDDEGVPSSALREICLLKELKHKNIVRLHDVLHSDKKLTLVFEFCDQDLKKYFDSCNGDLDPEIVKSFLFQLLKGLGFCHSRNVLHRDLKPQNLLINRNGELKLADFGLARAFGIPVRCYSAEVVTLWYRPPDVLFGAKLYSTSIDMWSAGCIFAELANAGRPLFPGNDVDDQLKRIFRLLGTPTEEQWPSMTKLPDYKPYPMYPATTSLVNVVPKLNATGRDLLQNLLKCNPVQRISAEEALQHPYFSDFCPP
T3 sequence (Q15078 99-307 partner limits assumed): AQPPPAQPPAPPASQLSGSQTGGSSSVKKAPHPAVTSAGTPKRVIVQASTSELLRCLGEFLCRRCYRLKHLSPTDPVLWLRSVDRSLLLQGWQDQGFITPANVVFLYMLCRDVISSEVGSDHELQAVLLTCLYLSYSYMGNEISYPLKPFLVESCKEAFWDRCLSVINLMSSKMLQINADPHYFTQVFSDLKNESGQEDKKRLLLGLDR
T2 sequence (P06493 whole entry): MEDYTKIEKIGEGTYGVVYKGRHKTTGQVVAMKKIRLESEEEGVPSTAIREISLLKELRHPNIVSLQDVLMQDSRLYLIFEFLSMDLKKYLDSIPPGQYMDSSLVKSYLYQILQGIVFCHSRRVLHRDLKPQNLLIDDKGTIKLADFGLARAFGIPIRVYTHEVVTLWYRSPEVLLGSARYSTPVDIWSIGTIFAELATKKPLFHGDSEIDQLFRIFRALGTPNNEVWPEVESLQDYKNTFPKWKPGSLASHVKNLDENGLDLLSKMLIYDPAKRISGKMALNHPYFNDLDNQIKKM
T2 sequence (P14635 whole entry partner): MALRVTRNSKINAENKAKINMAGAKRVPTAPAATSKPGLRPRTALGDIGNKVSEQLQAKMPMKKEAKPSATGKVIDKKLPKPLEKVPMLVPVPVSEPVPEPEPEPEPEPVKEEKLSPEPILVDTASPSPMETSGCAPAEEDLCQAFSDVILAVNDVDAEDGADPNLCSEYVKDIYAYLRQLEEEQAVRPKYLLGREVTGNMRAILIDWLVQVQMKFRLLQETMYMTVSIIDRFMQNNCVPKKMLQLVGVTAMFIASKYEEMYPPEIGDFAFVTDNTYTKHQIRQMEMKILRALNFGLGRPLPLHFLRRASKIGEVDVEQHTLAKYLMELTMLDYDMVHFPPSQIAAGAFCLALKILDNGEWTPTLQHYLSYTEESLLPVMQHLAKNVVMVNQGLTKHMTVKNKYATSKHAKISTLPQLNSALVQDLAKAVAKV
T4 sequence (P50613 whole entry): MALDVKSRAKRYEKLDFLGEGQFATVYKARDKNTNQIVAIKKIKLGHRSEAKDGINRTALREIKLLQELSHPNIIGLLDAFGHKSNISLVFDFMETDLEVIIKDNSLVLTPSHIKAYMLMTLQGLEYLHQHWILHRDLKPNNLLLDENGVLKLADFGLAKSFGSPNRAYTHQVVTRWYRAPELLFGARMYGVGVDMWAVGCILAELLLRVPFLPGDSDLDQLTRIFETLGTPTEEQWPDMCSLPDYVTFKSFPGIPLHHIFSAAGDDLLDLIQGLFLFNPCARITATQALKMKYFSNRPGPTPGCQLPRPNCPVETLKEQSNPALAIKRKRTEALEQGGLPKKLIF
T4 sequence (P51946 whole entry partner): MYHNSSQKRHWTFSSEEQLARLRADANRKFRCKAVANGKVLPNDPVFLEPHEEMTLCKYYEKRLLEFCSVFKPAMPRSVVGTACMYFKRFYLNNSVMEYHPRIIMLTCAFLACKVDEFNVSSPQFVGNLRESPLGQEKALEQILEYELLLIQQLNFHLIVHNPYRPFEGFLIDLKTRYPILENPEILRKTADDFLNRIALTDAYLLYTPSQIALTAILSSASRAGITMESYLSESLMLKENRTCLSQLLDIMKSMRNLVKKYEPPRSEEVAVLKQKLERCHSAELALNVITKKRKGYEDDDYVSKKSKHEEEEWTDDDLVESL
T4 sequence (P51948 whole entry partner): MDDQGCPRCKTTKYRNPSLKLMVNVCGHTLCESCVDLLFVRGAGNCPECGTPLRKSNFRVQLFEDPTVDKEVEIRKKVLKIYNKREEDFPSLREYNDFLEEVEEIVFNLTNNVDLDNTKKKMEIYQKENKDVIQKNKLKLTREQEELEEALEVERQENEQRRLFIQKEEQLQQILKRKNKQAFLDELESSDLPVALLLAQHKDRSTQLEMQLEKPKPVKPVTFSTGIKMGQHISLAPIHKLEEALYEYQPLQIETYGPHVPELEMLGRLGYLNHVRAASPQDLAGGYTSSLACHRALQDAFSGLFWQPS

pIC50 (CDK2/Cyclin A)	pIC50 (CDK1/Cyclin B)	pIC50 (MV4-11)	pIC50 (CDK5/p25)	pIC50 (CDK7/Cyclin H/MNAT1)	CDK1/CDK7: Selectivity of CDK7 inhibition over CDK1 inhibition (CDK7/Cyclin H/MNAT1)	CDK2/CDK7: Selectivity of CDK7 inhibition over CDK2 inhibition (CDK7/Cyclin H/MNAT1)	CDK5/CDK7: Selectivity of CDK7 inhibition over CDK5 inhibition (CDK7/Cyclin H/MNAT1)	pIC50 (OVCAR-3)	pIC50 (H460)	pIC50 (A2780)	Compound
6.00 to 7.00	6.00 to 7.00	> 6.00	> 7.00	> 7.00	C (C indicates [fold] ≤ 50)	C (C indicates [fold] ≤ 50)	C (C indicates [fold] ≤ 50)	> 6.00	> 6.00	> 6.00	CC(C)c1cnn2c(NCc3ccccc3-c3cc4c(NC(=O)/C=C/CN(C)C)cccc4[nH]3)nc(N3CCC(N)CC3)nc12 [Compound 3]
6.00 to 7.00	< 6.00		6.00 to 7.00	> 7.00	B (B indicates 50 < [fold] ≤ 500)	B (B indicates 50 < [fold] ≤ 500)	C (C indicates [fold] ≤ 50)		> 6.00		CC(C)c1cnn2c(NCc3ccccc3-n3cc4cccc(NC(=O)/C=C/CN(C)C)c4n3)nc(N3CCC(N)CC3)nc12 [Compound 16]
> 7.00	6.00 to 7.00		> 7.00	> 7.00	C (C indicates [fold] ≤ 50)	C (C indicates [fold] ≤ 50)	C (C indicates [fold] ≤ 50)		5.00 to 6.00		CC(C)c1cnn2c(NCc3ccccc3-c3cc4cc(NC(=O)/C=C/CN(C)C)ccc4[nH]3)nc(N3CCC(N)CC3)nc12 [Compound 19]
< 6.00	< 6.00	> 6.00	6.00 to 7.00	> 7.00	B (B indicates 50 < [fold] ≤ 500)	A (A indicates [fold] > 500)	B (B indicates 50 < [fold] ≤ 500)	> 6.00	> 6.00	> 6.00	CC(C)c1cnn2c(NCc3ccccc3-c3ccc4cccc(NC(=O)/C=C/CN(C)C)c4n3)nc(N3CCC(N)CC3)nc12 [Compound 20]
< 6.00	< 6.00		6.00 to 7.00	> 7.00	B (B indicates 50 < [fold] ≤ 500)	C (C indicates [fold] ≤ 50)	C (C indicates [fold] ≤ 50)		5.00 to 6.00		CC(C)c1cnn2c(NCc3cccc(-c4cc5cc(NC(=O)/C=C/CN(C)C)ccc5[nH]4)c3)nc(N3CCC(N)CC3)nc12 [Compound 23]
6.00 to 7.00	6.00 to 7.00		6.00 to 7.00	> 7.00	B (B indicates 50 < [fold] ≤ 500)	C (C indicates [fold] ≤ 50)	C (C indicates [fold] ≤ 50)		5.00 to 6.00		CC(C)c1cnn2c(NCc3ccccc3-n3cc4cc(NC(=O)/C=C/CN(C)C)ccc4n3)nc(N3CCC(N)CC3)nc12 [Compound 24]
6.00 to 7.00	6.00 to 7.00	> 6.00	> 7.00	> 7.00	B (B indicates 50 < [fold] ≤ 500)	C (C indicates [fold] ≤ 50)	C (C indicates [fold] ≤ 50)	> 6.00	> 6.00	> 6.00	CC(C)c1cnn2c(NCc3ccccc3-c3cc4cccc(NC(=O)/C=C/CN(C)C)c4[nH]3)nc(N3CCC(N)CC3)nc12 [Compound 25]
< 6.00	< 6.00	> 6.00	< 6.00	> 7.00	A (A indicates [fold] > 500)	A (A indicates [fold] > 500)	A (A indicates [fold] > 500)	> 6.00	> 6.00	> 6.00	CC(C)c1cnn2c(NCc3ccccc3-c3nccc4cc(NC(=O)/C=C/CN(C)C)ccc34)nc(NC[C@H]3CCNC[C@@H]3O)nc12 [Compound 26]
< 6.00	< 6.00	> 6.00	< 6.00	> 7.00	B (B indicates 50 < [fold] ≤ 500)	B (B indicates 50 < [fold] ≤ 500)	B (B indicates 50 < [fold] ≤ 500)	> 6.00	> 6.00	> 6.00	CC(C)c1cnn2c(NCc3ccccc3-c3nccc4cc(NC(=O)/C=C/CN(C)C)ccc34)nc(N[C@H]3CC[C@H](O)CC3)nc12 [Compound 27]
